Measured values taken from patent US8110570B2, “Modulators of acetyl-coenzyme A carboxylase and methods of use thereof” (Cropsolution, Inc., priority 2008, dated 2012).

Legend:
hACC2 = target: T1, hACC2 (Homo sapiens, UniProt O00763); assay: [14C]bicarbonate incorporation assay, overall ACC activity; type: biochemical; settings: recombinant hACC2, overall ACC activity
T1 construct: delete amino acids 1-148 and add Met-Gly in front of Lys149 in the final product; His tag (C); made in house; host or cells: baculovirus, Sf9 insect cells
Description: (§1) In vitro IC50 values of human ACC were determined using recombinant enzyme produced by standard procedures. For example, full-length cDNAs for both the human isoforms (hACC1 and hACC2) were each cloned and expressed as a recombinant protein using a baculovirus system. Double stranded cDNA from human fetal liver (Quick-Clone cDNA, cat. #7171-1) was purchased from BD/Clontech (Mt. View, Calif.). PCR primers were designed for full-length hACC1 and hACC2 using GenBank submissions AY237919 and AJ575592, respectively. The Advantage GC 2 PCR kit (BD/Clontech) was used for amplification. The PCR products (about 7 Kb) were TOPO-cloned into the pCR4Blunt vector (Invitrogen, Carlsbad, Calif.), and 6 clones of each gene were isolated. […] Full length versions of the two cDNAs corresponding to their respective Genbank sequences were assembled in pBluescript SK+ (Stratagene, La Jolla, Calif.) by combining error-free fragments from the PCR clones. The resulting hACC1 clone, designated pCS35, has six silent nucleotide differences compared to Genbank accession AY237919. The final hACC2 clone, designated pCS36, has ten silent nucleotide differences compared to Genbank accession AJ575592. Primers were designed to PCR amplify the cDNAs along with the in-frame 3′-his tag sequences from the pET vector and TOPO-cloned the resulting products into the Gateway® entry vector pENTR/D-TOPO. The ACC2 primers were designed to delete amino acids 1-148 and add Met-Gly in front of Lys149 in the final product. The resulting entry clones were transferred to BaculoDirect™ linear DNA (Invitrogen corp.) using the Gateway® LR recombination reaction. The recombinant baculovirus DNA was transfected into insect cells and viral amplification was performed according to the manufacturer's protocols. For protein expression sf9 cells were infected with a P3 viral stock in the presence of 50 uM biotin. The cells were harvested after 48-72 hr, lysed by sonication, and the resulting extract was clarified by centrifugation. ACC in the crude extract was concentrated by ammonium sulfate precipitation (40% w/v) and purified by Ni^2+-NTA chromatography (Novagen) followed by anion exchange chromatography on a UNO-Q column (BioRad).
(§2) Overall ACC activity in the hACC preparations is measured by following incorporation of [^14C]bicarbonate into […] essentially as described (Thumpy and Wakil, J Biol Chem 260, 6318-6323 (1985). Briefly, the reaction mixture (50 μL) contains: 50 mM Hepes (pH7.4), 20 mM K-Citrate, 20 mM Mg-Acetate 1.5 mM MgSO4, 2 mM DTT, 2 mM acetyl-CoA, 12 mM NaHCO3, 0.2 mM NaH^14CO3 (˜50 mCi/mmol), 0.01% (v/v) Triton X-100, 0.75 mg/mL BSA, 1% (v/v) DMSO (with or without inhibitor), and 0.3 μg (hACC1) or 0.15 μg (hACC2) enzyme. Reactions are initiated by the addition of ATP to a final concentration 2 mM. After 10 minutes at 37° C., the reaction is stopped by the addition of 2N HCl (50 μL). The samples are evaporated in a hood overnight, resuspended in H2O (200 μL), and incorporated label is quantified by scintillation counting in scintillation cocktail (3 mL). Inhibition data are fit to dose-response curves and IC50 values are reported (i.e. the concentration of inhibitor that gives 50% inhibition).

hACC1 = target: T2, hACC1 (Homo sapiens, UniProt Q13085); assay: as above; type: biochemical; settings: recombinant hACC1, overall ACC activity
T2 construct: PCR primers were designed for full-length hACC1 and hACC2 using GenBank submissions AY237919 and AJ575592, respectively; His tag (C); made in house; host or cells: baculovirus, Sf9 insect cells
Description: as §1, §2

[1] = system: PC-3 human prostate cancer cells; assay: MTT Cell Proliferation Assay; type: cell-based; settings: 72 hours, read-out: Percent of Control PC-3
Description: (§3) The anti-proliferative activity of test compounds against human tumor cell lines is evaluated in vitro using the ATCC's MTT Cell Proliferation Assay (Catalog No. 30-100K). Cell lines are grown using media, serum, and culture conditions recommended by the ATCC. Stock cultures are allowed to grow to 70-80% confluence. Cells are seeded into 96-well culture plates at a predetermined density on day 0 in complete medium (0.1 mL). Plates are placed in a humidified incubator at 37° C. with 5% CO2 and 95% HEPA filtered room air for 24 hours. At this point compound (0.1 mL of 2× stock (in media)) is added to the indicated wells and the plates are returned to the incubator for 72 hours. Cell proliferation is measured by addition of MTT reagent to each well and incubated for an additional 4 hours, followed by addition of cell lysis/MTT solublization reagent and incubating overnight. […] Results are expressed as percent of control cells versus compound concentration. Compounds of the present invention, and salts thereof, were evaluated for anti-proliferative activity as described above.

[2] = system: HCT-116 human colon cancer cells; assay: MTT Cell Proliferation Assay; type: cell-based; settings: 72 hours, read-out: Percent of Control HCT-116
Description: as §3

[3] = system: A2780 human ovary cancer cells; assay: MTT Cell Proliferation Assay; type: cell-based; settings: 72 hours, read-out: Percent of Control A2780
Description: as §3

[4] = system: MDA-MB-231 human breast cancer cells; assay: MTT Cell Proliferation Assay; type: cell-based; settings: 72 hours, read-out: Percent of Control MDA-MB-231
Description: as §3

T1 sequence (O00763 149-2458 limits assumed): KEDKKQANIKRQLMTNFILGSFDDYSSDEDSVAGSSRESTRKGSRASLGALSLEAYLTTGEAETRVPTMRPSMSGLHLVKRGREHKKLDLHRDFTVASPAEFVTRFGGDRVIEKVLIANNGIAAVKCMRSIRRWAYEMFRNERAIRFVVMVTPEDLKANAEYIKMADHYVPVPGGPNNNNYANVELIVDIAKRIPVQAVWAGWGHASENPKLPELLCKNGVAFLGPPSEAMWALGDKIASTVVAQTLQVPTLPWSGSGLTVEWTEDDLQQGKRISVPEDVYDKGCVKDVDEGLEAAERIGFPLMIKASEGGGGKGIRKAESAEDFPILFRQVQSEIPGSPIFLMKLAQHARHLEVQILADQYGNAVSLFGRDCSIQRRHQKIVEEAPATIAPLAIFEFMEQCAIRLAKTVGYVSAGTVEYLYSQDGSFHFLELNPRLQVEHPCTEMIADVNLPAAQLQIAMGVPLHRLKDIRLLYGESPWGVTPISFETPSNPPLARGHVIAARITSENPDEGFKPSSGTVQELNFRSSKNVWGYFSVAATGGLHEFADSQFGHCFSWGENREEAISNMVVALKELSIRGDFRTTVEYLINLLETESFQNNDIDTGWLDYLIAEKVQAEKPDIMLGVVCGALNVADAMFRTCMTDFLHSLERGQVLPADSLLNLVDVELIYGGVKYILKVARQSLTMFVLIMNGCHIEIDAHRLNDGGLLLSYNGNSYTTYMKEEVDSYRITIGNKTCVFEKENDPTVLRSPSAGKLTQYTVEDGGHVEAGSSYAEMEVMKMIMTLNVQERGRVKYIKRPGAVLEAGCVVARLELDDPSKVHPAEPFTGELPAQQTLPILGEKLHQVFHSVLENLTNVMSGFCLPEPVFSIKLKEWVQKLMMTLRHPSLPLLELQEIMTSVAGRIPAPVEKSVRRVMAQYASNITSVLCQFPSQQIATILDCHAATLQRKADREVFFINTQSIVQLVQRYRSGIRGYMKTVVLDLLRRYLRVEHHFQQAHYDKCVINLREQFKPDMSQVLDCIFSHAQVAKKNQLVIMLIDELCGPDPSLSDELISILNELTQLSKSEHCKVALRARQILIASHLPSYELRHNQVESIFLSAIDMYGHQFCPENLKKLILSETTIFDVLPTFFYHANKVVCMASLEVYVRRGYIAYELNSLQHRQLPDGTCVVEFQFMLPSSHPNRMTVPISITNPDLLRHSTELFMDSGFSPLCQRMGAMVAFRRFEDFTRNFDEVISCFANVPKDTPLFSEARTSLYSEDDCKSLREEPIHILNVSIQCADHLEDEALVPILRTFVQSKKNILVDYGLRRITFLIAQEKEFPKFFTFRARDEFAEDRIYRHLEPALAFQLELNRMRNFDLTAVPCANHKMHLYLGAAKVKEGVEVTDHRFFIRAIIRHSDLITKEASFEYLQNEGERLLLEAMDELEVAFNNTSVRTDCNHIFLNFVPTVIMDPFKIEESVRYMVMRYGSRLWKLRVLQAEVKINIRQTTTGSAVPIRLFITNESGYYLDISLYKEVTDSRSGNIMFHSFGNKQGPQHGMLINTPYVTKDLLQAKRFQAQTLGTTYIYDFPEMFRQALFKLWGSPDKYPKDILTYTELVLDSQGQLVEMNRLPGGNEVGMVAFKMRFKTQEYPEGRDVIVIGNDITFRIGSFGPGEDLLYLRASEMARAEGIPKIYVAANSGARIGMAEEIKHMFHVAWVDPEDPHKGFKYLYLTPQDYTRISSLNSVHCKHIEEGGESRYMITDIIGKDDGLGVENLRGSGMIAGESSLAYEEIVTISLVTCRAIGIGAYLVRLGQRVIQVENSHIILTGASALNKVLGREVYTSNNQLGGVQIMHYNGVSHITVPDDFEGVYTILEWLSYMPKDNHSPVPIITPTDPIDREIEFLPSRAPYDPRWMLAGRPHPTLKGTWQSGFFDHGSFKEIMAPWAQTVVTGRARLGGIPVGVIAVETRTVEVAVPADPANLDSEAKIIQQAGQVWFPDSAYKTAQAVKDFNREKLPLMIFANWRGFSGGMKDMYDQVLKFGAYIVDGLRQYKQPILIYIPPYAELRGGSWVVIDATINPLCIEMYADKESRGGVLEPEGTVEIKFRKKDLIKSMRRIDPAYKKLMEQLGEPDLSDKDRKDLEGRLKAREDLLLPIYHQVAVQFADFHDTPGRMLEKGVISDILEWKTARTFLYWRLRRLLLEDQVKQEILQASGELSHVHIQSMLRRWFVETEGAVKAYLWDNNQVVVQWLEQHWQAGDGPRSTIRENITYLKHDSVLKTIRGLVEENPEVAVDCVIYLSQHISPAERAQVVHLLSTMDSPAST

IC50 (hACC2)	IC50 (hACC1)	SMILES	other results
0.003 µM	0.004 µM	COc1ccc2c(c1)C(=O)NC1(CCN(C(=O)c3cc(OC)c4cccc(OC)c4c3)CC1)O2 [Compound 152, 1′-[(4,8-Dimethoxynaphth-2-yl)carbonyl]-6-methoxyspiro[2H-1-1,3-benzoxazin-2,4′-piperidin]-4-(3H)-one]	activity at 3.3 µM [1]: 88%; activity at 3.3 µM [2]: 53.3%; activity at 10 µM [2]: 42%; activity at 3.3 µM [3]: 84.1%; activity at 10 µM [3]: 56.9%; activity at 3.3 µM [4]: 57%; activity at 10 µM [4]: 25.7%
–	0.087 µM	COc1ccc2c(c1)C(=O)NC1(CCN(C(=O)c3cc(OC)c4cccc(OC)c4c3)CC1)N2 [Compound 187]	activity at 3.3 µM [1]: 69.9%; activity at 10 µM [1]: 52.2%; activity at 3.3 µM [2]: 71%; activity at 10 µM [2]: 56.1%; activity at 3.3 µM [3]: 102%; activity at 10 µM [3]: 64.9%; activity at 3.3 µM [4]: 80.8%; activity at 10 µM [4]: 45.6%
0.005 µM	0.004 µM	COc1cc(C(=O)N2CCC3(CC2)NC(=O)c2cc4ccccc4cc2O3)nc2c(OC)cccc12 [Compound 159]	–
0.004 µM	0.005 µM	COc1cc(C(=O)N2CCC3(CC2)NC(=O)c2cc(C)c(C)cc2O3)cc2c(OC)cccc12 [Compound 155, 1′-[(4,8-Dimethoxynaphth-2-yl)carbonyl]-6,7-dimethylspiro[2H-1,3-benzoxazin-2,4′-piperidin]-4-(3H)-one]	–
0.59 µM	0.83 µM	COc1ccc(OC)c2c1cc(C(=O)N1CCC3(CC1)NC(=O)c1cc(Br)ccc1O3)n2C [Compound 26]	–
0.027 µM	0.03 µM	COc1cc(C(=O)N2CCC3(CC2)NC(=O)c2cc(C)c(C)cc2O3)nc2c(SC)cccc12 [Compound 154]	–
0.029 µM	0.067 µM	COc1cc(C(=O)N2CCC3(CC2)NC(=O)c2cc(C)ccc2O3)nc2c(OC)cccc12 [Compound 137]	–
0.056 µM	0.092 µM	COc1cc(C(=O)N2CCC3(CC2)NC(=O)c2cc(NC(C)=O)ccc2O3)nc2c(OC)cccc12 [Compound 9]	–
0.003 µM	0.004 µM	COc1cc(C(=O)N2CCC3(CC2)NC(=O)c2cc4ccccc4cc2O3)cc2c(OC)cccc12 [Compound 160]	–
0.45 µM	1.9 µM	COc1cc2c(OC)cccc2cc1C(=O)N1CCC2(CC1)NC(=O)c1cc(Cl)ccc1O2 [Compound 131, 6-Chloro-1′-[(3,5-dimethoxynaphth-2-yl)carbonyl]spiro[2H-1,3-benzoxazin-2,4′-piperidin]-4-(3H)-one]	–
0.003 µM	0.0062 µM	COc1cc(C(=O)N2CCC3(CC2)NC(=O)c2cc(NC(C)=O)ccc2O3)cc2c(OC)cccc12 [Compound 31, 6-Acetamido-1′-[(4,8-dimethoxynaphth-2-yl)carbonyl]spiro[2H-1,3-benzoxazin-2,4′-piperidin]-4-(3H)-one]	–
0.033 µM	0.047 µM	COc1cc(C(=O)N2CCC3(CC2)NC(=O)c2cc(C(C)C)ccc2O3)cc2[nH]ncc12 [Compound 231]	–
0.014 µM	0.028 µM	COc1cc(C(=O)N2CCC3(CC2)NC(=O)c2cc(Cl)ccc2O3)cc2c(OC)cccc12 [Compound 171]	–
0.031 µM	0.036 µM	COc1ccc2cc3c(cc2c1)C(=O)NC1(CCN(C(=O)c2[nH]c4c(OC)cccc4c2C)CC1)O3 [Compound 166, 7-Methoxy-1′-[[7-methoxy-3-methyl-1H-indol-2-yl)carbonyl]spiro[2H-naphtho[2,3-e]-1,3-oxazin-2,4′-piperidin]-4-(3H)-one]	–

Further lines, the molecule ahead of its results:

SMILES	IC50 (hACC2)	IC50 (hACC1)	other results
COc1cccc2c(C)c(C(=O)N3CCC4(CC3)NC(=O)c3cc(OC(C)C)ccc3O4)[nH]c12 [Compound 180]	0.042 µM	0.036 µM	activity at 3.3 µM [1]: 79.5%; activity at 10 µM [1]: 56.8%; activity at 3.3 µM [2]: 52.6%; activity at 10 µM [2]: 29.8%; activity at 3.3 µM [3]: 79.4%; activity at 10 µM [3]: 21.2%; activity at 3.3 µM [4]: 68.7%; activity at 10 µM [4]: 9.3%
COc1ccc(OC)c2[nH]c(C(=O)N3CCC4(CC3)NC(=O)c3cc(OC(C)C)ccc3O4)cc12 [Compound 184]	0.4 µM	0.48 µM	activity at 3.3 µM [1]: 81.3%; activity at 10 µM [1]: 64.6%; activity at 3.3 µM [2]: 65.5%; activity at 10 µM [2]: 40.4%; activity at 3.3 µM [3]: 90%; activity at 10 µM [3]: 44.7%; activity at 3.3 µM [4]: 75.8%; activity at 10 µM [4]: 46.1%
COc1cc(C(=O)N2CCC3(CC2)NC(=O)c2cc(Br)ccc2N3)nc2c(C(C)C)cccc12 [Compound 91]	3.7 µM	2 µM	–
COc1cc2c(OC)cccc2cc1C(=O)N1CCC2(CC1)NC(=O)c1cc(Br)ccc1N2 [Compound 90]	1.1 µM	2.2 µM	–
COc1ccc2c(c1)C(=O)NC1(CCN(C(=O)c3cc(OC)c4cccc(OC)c4n3)CC1)N2 [Compound 188]	–	0.26 µM	activity at 3.3 µM [1]: 62.6%; activity at 10 µM [1]: 19%; activity at 3.3 µM [2]: 90.3%; activity at 10 µM [2]: 68.2%; activity at 3.3 µM [3]: 94.8%; activity at 10 µM [3]: 51.4%; activity at 3.3 µM [4]: 70.3%; activity at 10 µM [4]: 28.7%
COc1cccc2c(C)c(C(=O)N3CCC4(CC3)NC(=O)c3cc(NC(C)=O)ccc3O4)[nH]c12 [Compound 24]	0.077 µM	0.1 µM	–
COc1cc(C(=O)N2CCC3(CC2)NC(=O)c2cc(NC(C)=O)ccc2O3)nc2c(SC)cccc12 [Compound 136]	0.055 µM	0.075 µM	–
O=C1NC2(CCN(C(=O)c3ccc4[nH]nnc4c3)CC2)Oc2ccc(Br)cc21 [Compound 110, 1′-[(1H-benzotriazol-5-yl)carbonyl]-6-bromospiro[2H-1,3-benzoxazin-2,4′-piperidin]-4-(3H)-one]	4.6 µM	6.7 µM	–
COc1ccc(OC)c2[nH]c(C(=O)N3CCC4(CC3)NC(=O)c3cc(NC(C)=O)ccc3O4)cc12 [Compound 17]	0.31 µM	0.26 µM	–
COc1cccc2ccc(C(=O)N3CCC4(CC3)NC(=O)c3cc(Br)ccc3O4)nc12 [Compound 44]	0.49 µM	0.74 µM	–
COc1cccc2c(C)c(C(=O)N3CCC4(CC3)NC(=O)c3cc(C)ccc3O4)[nH]c12 [Compound 143]	0.19 µM	0.13 µM	–
COc1cc(C(=O)N2CCC3(CC2)NC(=O)c2cc(C)ccc2O3)nc2c(SC)cccc12 [Compound 148]	0.066 µM	0.088 µM	–
